Results on six molecules are retold here after patent publication US20160303095A1, “METHODS OF TREATING HEPATITIS B VIRUS” (Gilead Sciences, Inc., priority 2015, published 2016).

One assay addresses T1, KDM6A (Homo sapiens, UniProt O15550).
T1 construct: host or cells: Sf9 cells
As to the kind of experiment: Biochemical KDM inhibition assay (LANCE), KDM6A. The settings on record: read-out: Biochemical IC50 KDM 6A. The method, then:
(§1) Representative compounds were characterized for their inhibition of KDM5 using biotinylated histone substrates. Inhibition was measured in vitro (CEREP Poitier, Le Bois l'Evêque, France) following experimental conditions described in Table 2. Briefly, the test compound, reference compound or water (control) was mixed with about 2-20 ng of recombinant, Human enzymes expressed in Sf9 cells in a buffer containing 45 mM Hepes/Tris (pH 7), 5 μM FAS, 100 μM ascorbic acid, 10 μM 2-oxoglutarate, 0.01% Tween 20 and 0.01% BSA. Thereafter, the reaction was initiated by adding the biotin-labeled substrate, and the mixture was incubated for 10-30 min at room temperature. For basal control measurements, the enzyme was omitted from the reaction mixture. Following incubation the reaction was stopped by adding 1 mM EDTA. After 5 min, the anti-methyl histone antibody labeled with europium chelate and the Ulight streptavidine (Perkin Elmer Waltham, Mass.) were added. After 60 min more, the fluorescence transfer was measured at λex=320 nm and λem=620 and λem=665 nm using a microplate reader (Envision, Perkin Elmer) (LANCE). The enzyme activity was determined by dividing the signal measured at λem=665 nm by that measured at 620 nm (ratio).
For orientation: TR-FRET usually uses a lanthanide donor and a delayed reading to cut background.

Another assay addresses T2, KDM3A (Homo sapiens, UniProt Q9Y4C1).
T2 construct: host or cells: Sf9 cells
T2 sequence (Q9Y4C1 1-1321): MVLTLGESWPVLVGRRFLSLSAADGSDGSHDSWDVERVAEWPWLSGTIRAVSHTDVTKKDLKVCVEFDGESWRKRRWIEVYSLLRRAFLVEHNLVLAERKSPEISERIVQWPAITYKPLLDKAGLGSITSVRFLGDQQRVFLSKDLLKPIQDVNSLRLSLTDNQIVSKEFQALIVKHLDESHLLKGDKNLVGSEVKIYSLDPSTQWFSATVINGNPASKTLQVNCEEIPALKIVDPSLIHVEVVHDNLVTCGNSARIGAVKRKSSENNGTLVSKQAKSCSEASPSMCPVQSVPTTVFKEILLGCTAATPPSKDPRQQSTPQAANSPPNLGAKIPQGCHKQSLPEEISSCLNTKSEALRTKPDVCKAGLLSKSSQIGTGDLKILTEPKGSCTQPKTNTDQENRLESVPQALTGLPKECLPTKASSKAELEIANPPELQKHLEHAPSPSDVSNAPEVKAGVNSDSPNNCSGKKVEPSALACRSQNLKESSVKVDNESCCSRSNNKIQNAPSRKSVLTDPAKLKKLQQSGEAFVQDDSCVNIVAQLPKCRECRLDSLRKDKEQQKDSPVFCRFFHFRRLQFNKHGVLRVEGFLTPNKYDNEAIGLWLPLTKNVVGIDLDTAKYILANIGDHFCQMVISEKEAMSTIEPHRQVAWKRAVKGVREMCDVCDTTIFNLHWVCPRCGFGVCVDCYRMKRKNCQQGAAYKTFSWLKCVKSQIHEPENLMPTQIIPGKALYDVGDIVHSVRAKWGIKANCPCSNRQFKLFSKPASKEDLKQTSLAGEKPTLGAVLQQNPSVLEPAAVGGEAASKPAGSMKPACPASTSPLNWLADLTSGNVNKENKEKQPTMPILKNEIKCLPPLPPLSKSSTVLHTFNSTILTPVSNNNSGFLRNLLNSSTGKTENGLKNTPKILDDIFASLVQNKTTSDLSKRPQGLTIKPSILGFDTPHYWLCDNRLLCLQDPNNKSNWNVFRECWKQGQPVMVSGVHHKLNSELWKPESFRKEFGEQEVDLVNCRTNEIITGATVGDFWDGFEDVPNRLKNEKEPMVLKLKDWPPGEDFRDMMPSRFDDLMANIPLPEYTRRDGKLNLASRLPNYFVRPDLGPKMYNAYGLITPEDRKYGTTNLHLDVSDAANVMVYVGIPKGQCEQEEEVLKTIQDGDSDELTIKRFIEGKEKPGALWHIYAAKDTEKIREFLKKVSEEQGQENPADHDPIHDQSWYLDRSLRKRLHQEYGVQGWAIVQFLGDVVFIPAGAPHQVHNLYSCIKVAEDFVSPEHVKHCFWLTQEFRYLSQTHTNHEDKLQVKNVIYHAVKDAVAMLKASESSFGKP
As to the kind of experiment: Biochemical KDM inhibition assay (LANCE), KDM3A. Conditions: read-out: Biochemical IC50 KDM 3A.

The target of the next assay is T3, KDM6B (Homo sapiens, UniProt O15054).
T3 construct: host or cells: Sf9 cells
Description: Biochemical KDM inhibition assay (LANCE), KDM6B. The settings on record: read-out: Biochemical IC50 KDM 6B. The method, then:
as §1

T1 sequence (O15550 whole entry): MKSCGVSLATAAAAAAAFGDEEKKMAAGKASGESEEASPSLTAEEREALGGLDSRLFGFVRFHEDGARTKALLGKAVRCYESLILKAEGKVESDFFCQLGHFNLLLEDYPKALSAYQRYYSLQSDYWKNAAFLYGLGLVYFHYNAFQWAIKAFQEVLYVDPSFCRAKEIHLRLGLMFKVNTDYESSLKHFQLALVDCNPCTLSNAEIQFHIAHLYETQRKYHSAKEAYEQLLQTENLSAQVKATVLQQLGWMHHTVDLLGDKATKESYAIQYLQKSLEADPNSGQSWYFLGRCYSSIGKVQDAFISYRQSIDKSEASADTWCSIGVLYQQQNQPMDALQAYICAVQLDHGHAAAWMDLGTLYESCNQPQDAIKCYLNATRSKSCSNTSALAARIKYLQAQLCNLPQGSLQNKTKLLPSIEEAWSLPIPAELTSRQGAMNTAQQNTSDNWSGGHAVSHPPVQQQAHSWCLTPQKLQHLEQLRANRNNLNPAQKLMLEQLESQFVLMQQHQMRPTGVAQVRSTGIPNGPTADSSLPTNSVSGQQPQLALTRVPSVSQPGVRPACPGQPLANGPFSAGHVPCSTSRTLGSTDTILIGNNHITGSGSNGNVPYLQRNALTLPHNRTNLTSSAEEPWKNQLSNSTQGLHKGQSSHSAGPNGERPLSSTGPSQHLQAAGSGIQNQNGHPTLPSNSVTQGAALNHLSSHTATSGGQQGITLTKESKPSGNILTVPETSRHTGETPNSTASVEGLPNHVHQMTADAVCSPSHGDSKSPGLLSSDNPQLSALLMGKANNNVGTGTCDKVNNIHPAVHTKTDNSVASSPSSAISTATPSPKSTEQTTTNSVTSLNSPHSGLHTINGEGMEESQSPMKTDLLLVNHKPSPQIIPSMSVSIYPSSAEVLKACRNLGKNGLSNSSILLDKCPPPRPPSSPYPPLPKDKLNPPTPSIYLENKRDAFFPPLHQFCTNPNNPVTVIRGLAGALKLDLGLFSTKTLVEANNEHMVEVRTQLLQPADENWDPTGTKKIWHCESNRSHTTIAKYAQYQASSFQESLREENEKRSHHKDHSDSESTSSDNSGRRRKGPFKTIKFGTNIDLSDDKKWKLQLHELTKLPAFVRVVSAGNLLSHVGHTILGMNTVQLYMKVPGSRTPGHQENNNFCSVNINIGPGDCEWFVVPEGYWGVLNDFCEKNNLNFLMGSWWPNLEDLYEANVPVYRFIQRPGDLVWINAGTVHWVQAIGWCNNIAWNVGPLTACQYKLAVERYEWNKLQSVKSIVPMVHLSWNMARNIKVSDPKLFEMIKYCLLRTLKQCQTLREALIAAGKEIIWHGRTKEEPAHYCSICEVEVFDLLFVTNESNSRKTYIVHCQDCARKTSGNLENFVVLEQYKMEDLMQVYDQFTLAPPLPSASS
T3 sequence (O15054 whole entry): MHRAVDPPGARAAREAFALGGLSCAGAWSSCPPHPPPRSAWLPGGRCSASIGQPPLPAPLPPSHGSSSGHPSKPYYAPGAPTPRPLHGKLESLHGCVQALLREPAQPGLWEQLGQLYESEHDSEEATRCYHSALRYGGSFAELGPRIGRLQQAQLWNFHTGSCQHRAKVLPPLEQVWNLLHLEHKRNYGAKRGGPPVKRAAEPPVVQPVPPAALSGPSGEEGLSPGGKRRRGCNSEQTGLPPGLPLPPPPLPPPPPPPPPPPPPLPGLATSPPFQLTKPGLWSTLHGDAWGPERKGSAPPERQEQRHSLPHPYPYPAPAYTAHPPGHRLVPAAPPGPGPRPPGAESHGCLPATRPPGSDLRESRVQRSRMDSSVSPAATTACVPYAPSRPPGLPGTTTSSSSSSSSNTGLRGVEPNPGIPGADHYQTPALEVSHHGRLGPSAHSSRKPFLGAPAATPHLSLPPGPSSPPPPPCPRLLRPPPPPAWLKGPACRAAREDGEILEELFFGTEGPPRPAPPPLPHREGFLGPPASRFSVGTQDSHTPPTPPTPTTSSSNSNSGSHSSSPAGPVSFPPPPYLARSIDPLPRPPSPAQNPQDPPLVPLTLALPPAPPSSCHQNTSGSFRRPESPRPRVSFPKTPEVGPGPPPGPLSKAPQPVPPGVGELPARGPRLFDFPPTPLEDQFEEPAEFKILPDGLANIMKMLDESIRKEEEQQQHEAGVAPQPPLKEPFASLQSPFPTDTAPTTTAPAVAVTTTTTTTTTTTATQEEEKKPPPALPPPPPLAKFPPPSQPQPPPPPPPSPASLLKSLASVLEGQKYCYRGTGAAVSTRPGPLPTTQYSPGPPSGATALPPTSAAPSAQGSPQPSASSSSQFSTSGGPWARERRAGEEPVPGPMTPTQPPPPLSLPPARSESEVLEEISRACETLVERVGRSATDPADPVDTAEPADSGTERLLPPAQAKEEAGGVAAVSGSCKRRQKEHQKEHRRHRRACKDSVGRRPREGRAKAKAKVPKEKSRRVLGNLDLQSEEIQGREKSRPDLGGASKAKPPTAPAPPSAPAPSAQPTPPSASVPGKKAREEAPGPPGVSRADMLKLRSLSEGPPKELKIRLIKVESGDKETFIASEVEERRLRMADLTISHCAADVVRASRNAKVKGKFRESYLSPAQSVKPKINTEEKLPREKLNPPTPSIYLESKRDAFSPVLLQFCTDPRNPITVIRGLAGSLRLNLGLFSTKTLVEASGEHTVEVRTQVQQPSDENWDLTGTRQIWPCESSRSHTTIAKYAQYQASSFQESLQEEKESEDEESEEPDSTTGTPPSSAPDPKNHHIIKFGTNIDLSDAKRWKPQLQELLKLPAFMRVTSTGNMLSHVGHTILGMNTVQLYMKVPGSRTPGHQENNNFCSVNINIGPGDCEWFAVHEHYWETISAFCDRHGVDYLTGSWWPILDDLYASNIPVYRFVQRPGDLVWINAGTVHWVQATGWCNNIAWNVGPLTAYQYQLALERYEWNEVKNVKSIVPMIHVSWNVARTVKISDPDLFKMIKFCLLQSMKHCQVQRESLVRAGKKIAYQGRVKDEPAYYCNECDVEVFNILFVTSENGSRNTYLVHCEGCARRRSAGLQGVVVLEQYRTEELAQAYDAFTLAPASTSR

Regarding `CCN(CCN(C)C)C(=O)CNCc1cc(C(=O)O)ccn1` [Example 9], the IC50 (usually the concentration that inhibits the measured activity by half) on KDM6A is 1300 nM; on KDM3A, 1100 nM; at KDM6B, 4100 nM.
In the same order, the values of `CCN(CC)CCCCNCc1cc(C(=O)O)ccn1` [Example 18] are 5500 nM, 5400 nM and 27000 nM.
With `Nc1c(C(=O)O)ccnc1C(=O)O` [Example 7, reference compound], the IC50 worked out at 930 nM on KDM6A, 1200 nM on KDM3A and 7800 nM on KDM6B.
For `Cc1cc(Cl)ccc1COc1ccnn1-c1cc(C(=O)O)ccn1` [Example 11] the same measures were 74 nM, 7500 nM and 280 nM.
Consider `O=C(O)c1ccncc1Nc1nn(CCN2CCC(F)(F)CC2)c2ccc(F)cc12` [Example 13], for which the IC50 at KDM6A is 140 nM; at KDM6B, 400 nM.
As to `N#CNC(=O)c1ccncc1Nc1nn(CCN2CCC(F)(F)CC2)c2ccc(F)cc12` [Example 14], the IC50 on KDM3A worked out at 3900 nM.
